What all share (assay): cell-based
Experiment [1] addresses hNav1.3 (Homo sapiens, UniProt Q9NY46). As to conditions: IonWorks Quattro, use, […], read-out: IWQ Use Nav1.3.
In experiment [2] the target is hNav1.5 (Homo sapiens, UniProt Q14524). The following applies: IonWorks Quattro, use, […], read-out: IWQ Use Nav1.5.
Experiment [3] has as its target hNav1.7 (Homo sapiens, UniProt Q15858). Format: cell-based. As to conditions: IonWorks Quattro, use, […], read-out: IWQ Use Nav1.7.

Like-named read-outs stand apart in the source and are kept apart here. Positions of bridges follow the written chain, without caps; N, C: chain ends. Non-standard residues stand in square brackets, D forms with d. Residues, ends and D or L forms follow the SMILES beside them. Phe(4-COOH) = N[C@@H](Cc1ccc(C(=O)O)cc1)C(=O)O; Bip = N[C@@H](Cc1ccc(-c2ccccc2)cc1)C(=O)O; Arg(Me2s) = CN=C(NC)NCCC[C@H](N)C(=O)O; 2Pal = N[C@@H](Cc1ccccn1)C(=O)O; Phg = N[C@H](C(=O)O)c1ccccc1

Chain of hNav1.5 (Q14524 whole entry, looked up): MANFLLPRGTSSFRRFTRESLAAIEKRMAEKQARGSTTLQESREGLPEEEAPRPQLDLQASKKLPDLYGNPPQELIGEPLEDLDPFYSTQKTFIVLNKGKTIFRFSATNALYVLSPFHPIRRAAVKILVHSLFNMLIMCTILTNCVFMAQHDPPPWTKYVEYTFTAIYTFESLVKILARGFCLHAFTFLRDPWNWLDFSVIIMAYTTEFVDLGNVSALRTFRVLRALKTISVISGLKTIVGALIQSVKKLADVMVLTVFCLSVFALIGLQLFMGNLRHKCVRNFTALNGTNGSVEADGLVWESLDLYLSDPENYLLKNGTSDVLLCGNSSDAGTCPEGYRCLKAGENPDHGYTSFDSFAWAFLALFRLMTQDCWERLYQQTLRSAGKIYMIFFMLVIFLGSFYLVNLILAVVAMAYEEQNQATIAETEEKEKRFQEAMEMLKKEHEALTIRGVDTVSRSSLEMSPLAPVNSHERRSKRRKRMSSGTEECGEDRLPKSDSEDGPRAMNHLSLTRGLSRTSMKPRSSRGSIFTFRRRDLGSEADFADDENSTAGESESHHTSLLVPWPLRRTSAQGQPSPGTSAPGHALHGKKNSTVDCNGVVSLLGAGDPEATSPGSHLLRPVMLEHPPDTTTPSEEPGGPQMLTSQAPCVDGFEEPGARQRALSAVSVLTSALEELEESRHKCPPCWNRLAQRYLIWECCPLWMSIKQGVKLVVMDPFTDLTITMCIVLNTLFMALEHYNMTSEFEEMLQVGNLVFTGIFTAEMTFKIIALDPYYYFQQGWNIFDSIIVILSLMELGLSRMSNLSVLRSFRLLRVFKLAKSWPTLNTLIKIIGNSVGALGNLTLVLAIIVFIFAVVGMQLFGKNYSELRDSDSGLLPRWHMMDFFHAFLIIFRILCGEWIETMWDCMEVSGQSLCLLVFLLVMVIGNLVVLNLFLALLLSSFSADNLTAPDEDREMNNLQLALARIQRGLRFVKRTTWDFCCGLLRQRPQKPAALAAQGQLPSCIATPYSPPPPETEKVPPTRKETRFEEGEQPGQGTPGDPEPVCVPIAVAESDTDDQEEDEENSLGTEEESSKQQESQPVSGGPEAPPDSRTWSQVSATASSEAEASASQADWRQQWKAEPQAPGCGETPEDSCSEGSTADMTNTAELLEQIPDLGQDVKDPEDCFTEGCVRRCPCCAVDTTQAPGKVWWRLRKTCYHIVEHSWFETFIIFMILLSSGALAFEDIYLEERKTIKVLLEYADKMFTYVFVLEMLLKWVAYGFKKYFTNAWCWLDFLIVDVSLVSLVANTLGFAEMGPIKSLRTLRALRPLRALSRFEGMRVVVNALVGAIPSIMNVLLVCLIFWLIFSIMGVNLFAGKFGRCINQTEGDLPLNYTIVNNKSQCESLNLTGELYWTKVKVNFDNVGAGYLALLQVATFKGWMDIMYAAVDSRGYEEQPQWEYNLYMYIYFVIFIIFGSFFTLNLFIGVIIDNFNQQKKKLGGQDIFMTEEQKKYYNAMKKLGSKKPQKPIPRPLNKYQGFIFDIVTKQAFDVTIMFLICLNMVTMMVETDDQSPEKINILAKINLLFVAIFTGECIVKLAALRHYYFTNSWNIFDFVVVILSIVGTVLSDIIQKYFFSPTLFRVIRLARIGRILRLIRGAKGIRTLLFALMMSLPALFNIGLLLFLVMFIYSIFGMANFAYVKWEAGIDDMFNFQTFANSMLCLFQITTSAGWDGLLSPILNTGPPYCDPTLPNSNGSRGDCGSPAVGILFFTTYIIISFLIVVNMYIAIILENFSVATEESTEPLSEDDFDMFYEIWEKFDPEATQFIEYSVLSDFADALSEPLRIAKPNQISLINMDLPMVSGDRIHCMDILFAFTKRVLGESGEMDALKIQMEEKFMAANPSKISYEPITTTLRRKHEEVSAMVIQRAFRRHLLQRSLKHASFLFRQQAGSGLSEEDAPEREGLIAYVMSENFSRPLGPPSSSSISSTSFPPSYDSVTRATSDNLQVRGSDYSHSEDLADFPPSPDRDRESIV
Chain of hNav1.7 (Q15858 whole entry, looked up): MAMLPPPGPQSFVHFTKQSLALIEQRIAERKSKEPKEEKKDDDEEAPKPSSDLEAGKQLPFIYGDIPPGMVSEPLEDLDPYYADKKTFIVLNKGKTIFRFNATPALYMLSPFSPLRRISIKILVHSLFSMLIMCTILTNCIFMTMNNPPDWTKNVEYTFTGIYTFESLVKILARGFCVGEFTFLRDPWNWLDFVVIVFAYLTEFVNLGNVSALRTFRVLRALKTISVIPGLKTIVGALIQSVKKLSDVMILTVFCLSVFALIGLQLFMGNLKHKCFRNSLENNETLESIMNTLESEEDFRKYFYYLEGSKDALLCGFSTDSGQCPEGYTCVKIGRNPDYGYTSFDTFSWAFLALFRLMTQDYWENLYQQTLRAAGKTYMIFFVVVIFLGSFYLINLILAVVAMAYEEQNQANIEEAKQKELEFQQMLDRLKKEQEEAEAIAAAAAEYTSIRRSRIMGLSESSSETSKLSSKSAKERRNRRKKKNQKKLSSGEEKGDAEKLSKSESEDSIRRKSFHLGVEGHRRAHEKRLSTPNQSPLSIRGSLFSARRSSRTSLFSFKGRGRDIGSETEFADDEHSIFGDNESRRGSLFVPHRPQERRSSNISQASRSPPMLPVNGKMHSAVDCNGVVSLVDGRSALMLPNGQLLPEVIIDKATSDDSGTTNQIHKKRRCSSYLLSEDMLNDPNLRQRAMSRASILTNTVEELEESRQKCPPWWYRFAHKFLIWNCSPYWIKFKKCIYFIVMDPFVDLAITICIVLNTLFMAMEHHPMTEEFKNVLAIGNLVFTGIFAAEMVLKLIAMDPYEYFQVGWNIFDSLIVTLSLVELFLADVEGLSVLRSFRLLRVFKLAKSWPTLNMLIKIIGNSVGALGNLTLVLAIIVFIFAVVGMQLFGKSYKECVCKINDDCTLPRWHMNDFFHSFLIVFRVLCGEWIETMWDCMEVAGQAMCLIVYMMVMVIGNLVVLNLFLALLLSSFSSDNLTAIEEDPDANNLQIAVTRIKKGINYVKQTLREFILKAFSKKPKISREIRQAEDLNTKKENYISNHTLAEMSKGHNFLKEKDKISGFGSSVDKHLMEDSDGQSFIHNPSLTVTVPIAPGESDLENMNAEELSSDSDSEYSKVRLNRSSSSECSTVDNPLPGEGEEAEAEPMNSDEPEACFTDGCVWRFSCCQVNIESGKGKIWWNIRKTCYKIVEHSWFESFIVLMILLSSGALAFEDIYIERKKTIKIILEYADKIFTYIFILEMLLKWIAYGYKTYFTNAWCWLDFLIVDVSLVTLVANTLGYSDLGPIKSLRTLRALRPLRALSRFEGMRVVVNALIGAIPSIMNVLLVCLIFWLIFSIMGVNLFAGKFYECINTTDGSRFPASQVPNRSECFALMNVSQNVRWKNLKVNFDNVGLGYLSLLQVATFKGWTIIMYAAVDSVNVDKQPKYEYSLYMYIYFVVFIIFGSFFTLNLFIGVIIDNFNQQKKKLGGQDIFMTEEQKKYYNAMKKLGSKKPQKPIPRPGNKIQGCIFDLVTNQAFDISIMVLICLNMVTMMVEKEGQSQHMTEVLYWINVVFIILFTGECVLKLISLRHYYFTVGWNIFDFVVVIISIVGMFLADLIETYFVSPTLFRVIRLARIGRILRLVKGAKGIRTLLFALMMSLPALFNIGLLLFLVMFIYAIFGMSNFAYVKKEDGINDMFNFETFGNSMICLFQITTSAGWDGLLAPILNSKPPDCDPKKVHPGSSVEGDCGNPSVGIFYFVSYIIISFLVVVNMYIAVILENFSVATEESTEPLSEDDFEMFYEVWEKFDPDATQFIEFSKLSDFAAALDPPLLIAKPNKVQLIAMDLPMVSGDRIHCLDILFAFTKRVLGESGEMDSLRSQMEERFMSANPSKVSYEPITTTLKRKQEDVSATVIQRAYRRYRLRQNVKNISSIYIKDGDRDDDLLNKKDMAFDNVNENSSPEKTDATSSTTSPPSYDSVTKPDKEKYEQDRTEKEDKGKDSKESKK

In the case of `CC[C@H](C)[C@@H]1NC(=O)[C@@H]2CSSC[C@@H]3NC(=O)[C@H](C(C)C)NC(=O)[C@H](CC(C)C)NC(=O)[C@H](CC(N)=O)NC(=O)[C@@H]4CCCN4C(=O)[C@H](CCCNC(=N)N)NC(=O)[C@H](CSSC[C@H](NC(=O)[C@@H](N)CC(=O)O)C(=O)N[C@@H](CC(C)C)C(=O)NCC(=O)N[C@@H](Cc4ccccc4)C(=O)N[C@@H](CCSC)C(=O)N[C@@H](CCCNC(=N)N)C(=O)N[C@@H](CCCCN)C(=O)N2)NC(=O)[C@H](CSSC[C@@H](C(=O)N[C@@H](CCCCN)C(=O)N[C@@H](Cc2ccc(O)cc2)C(=O)N[C@H](C(=O)N[C@@H](Cc2ccccc2)C(N)=O)C(C)C)NC(=O)[C@H](Cc2ccc(-c4ccccc4)cc2)NC(=O)[C@H](CCCCN)NC(=O)[C@H](Cc2c[nH]cn2)NC(=O)[C@H]([C@@H](C)O)NC(=O)[C@H](CCCNC(=N)N)NC(=O)[C@H](CO)NC3=O)NC(=O)[C@H](CCCCN)NC(=O)[C@H](CC(=O)O)NC(=O)[C@H](CC(N)=O)NC(=O)[C@H](CC(=O)O)NC(=O)[C@@H]2CCCN2C1=O` [compound 360] (H-DCLGFMRKCIPDNDKCCRPNLVCSRTHK[Bip]CKYVF-NH2; disulfide 2-17, 9-23, 16-30), the IC50 amounted to 6.95 µM in experiment [1] (Table 24), 9.77 µM in experiment [2] (Table 24) and 4.79 µM in experiment [3] (Table 24).
Regarding `CC[C@H](C)[C@@H]1NC(=O)[C@@H]2CSSC[C@@H]3NC(=O)[C@H](C(C)C)NC(=O)[C@H](CC(C)C)NC(=O)[C@H](CC(N)=O)NC(=O)[C@@H]4CCCN4C(=O)[C@H](CCCNC(=N)N)NC(=O)[C@H](CSSC[C@H](NC(=O)[C@@H](N)CC(=O)O)C(=O)N[C@@H](CC(C)C)C(=O)NCC(=O)N[C@@H](Cc4ccccc4)C(=O)N[C@@H](CCSC)C(=O)N[C@@H](CCCNC(=N)N)C(=O)N[C@@H](CCCCN)C(=O)N2)NC(=O)[C@H](CSSC[C@@H](C(=O)N[C@@H](CCCCN)C(=O)N[C@@H](Cc2ccc(O)cc2)C(=O)N[C@H](C(=O)N[C@@H](Cc2ccccc2)C(N)=O)C(C)C)NC(=O)[C@H](Cc2cn(C)c4ccccc24)NC(=O)[C@H](CCCCN)NC(=O)[C@H](Cc2c[nH]cn2)NC(=O)[C@H]([C@@H](C)O)NC(=O)[C@H](CCCNC(=N)N)NC(=O)[C@H](CO)NC3=O)NC(=O)[C@H](CCCCN)NC(=O)[C@H](CC(=O)O)NC(=O)[C@H](CC(N)=O)NC(=O)[C@H](CC(=O)O)NC(=O)[C@@H]2CCCN2C1=O` [compound 361], the IC50 in experiment [1] (Table 24) was found to be 4.58 µM; in experiment [2] (Table 24), 12.2 µM; in experiment [3] (Table 24) it was 3.89 µM.
As for `CC[C@H](C)[C@@H]1NC(=O)[C@@H]2CSSC[C@@H]3NC(=O)[C@H](C(C)C)NC(=O)[C@H](CC(C)C)NC(=O)[C@H](CC(N)=O)NC(=O)[C@@H]4CCCN4C(=O)[C@H](CCCNC(=N)N)NC(=O)[C@H](CSSC[C@H](NC(=O)[C@@H](N)CC(=O)O)C(=O)N[C@@H](CC(C)C)C(=O)NCC(=O)N[C@@H](Cc4ccccc4)C(=O)N[C@@H](CCSC)C(=O)N[C@@H](CCCNC(=N)N)C(=O)N[C@@H](CCCCN)C(=O)N2)NC(=O)[C@H](CSSC[C@@H](C(=O)N[C@@H](CCCCN)C(=O)N[C@@H](Cc2ccc(O)cc2)C(=O)N[C@H](C(=O)N[C@@H](Cc2ccccc2)C(N)=O)C(C)C)NC(=O)[C@H](c2ccccc2)NC(=O)[C@H](CCCCN)NC(=O)[C@H](Cc2c[nH]cn2)NC(=O)[C@H]([C@@H](C)O)NC(=O)[C@H](CCCNC(=N)N)NC(=O)[C@H](CO)NC3=O)NC(=O)[C@H](CCCCN)NC(=O)[C@H](CC(=O)O)NC(=O)[C@H](CC(N)=O)NC(=O)[C@H](CC(=O)O)NC(=O)[C@@H]2CCCN2C1=O` [compound 362] (H-DCLGFMRKCIPDNDKCCRPNLVCSRTHK[Phg]CKYVF-NH2; disulfide 2-17, 9-23, 16-30), the values for the IC50 in experiment [1] (Table 24), in experiment [2] (Table 24) and in experiment [3] (Table 24) were 3.18 µM, 7.85 µM and 5.52 µM, respectively.
Taken in the same sequence, the figures for `CC[C@H](C)[C@@H]1NC(=O)[C@@H]2CSSC[C@@H]3NC(=O)[C@H](C(C)C)NC(=O)[C@H](CC(C)C)NC(=O)[C@H](CC(N)=O)NC(=O)[C@@H]4CCCN4C(=O)[C@H](CCCNC(=N)N)NC(=O)[C@H](CSSC[C@H](NC(=O)[C@@H](N)CC(=O)O)C(=O)N[C@@H](CC(C)C)C(=O)NCC(=O)N[C@@H](Cc4ccccc4)C(=O)N[C@@H](CCSC)C(=O)N[C@@H](CCCNC(=N)N)C(=O)N[C@@H](CCCCN)C(=O)N2)NC(=O)[C@H](CSSC[C@@H](C(=O)N[C@@H](CCCCN)C(=O)N[C@@H](Cc2ccc(O)cc2)C(=O)N[C@H](C(=O)N[C@@H](Cc2ccccc2)C(N)=O)C(C)C)NC(=O)[C@H](Cc2ccc(C(=O)O)cc2)NC(=O)[C@H](CCCCN)NC(=O)[C@H](Cc2c[nH]cn2)NC(=O)[C@H]([C@@H](C)O)NC(=O)[C@H](CCCNC(=N)N)NC(=O)[C@H](CO)NC3=O)NC(=O)[C@H](CCCCN)NC(=O)[C@H](CC(=O)O)NC(=O)[C@H](CC(N)=O)NC(=O)[C@H](CC(=O)O)NC(=O)[C@@H]2CCCN2C1=O` [compound 363] (H-DCLGFMRKCIPDNDKCCRPNLVCSRTHK[Phe(4-COOH)]CKYVF-NH2; disulfide 2-17, 9-23, 16-30) were 14.9 µM, 18.8 µM and 15 µM.
Regarding `CC[C@H](C)[C@@H]1NC(=O)[C@@H]2CSSC[C@@H]3NC(=O)[C@H](C(C)C)NC(=O)[C@H](CC(C)C)NC(=O)[C@H](CC(N)=O)NC(=O)[C@@H]4CCCN4C(=O)[C@H](CCCNC(=N)N)NC(=O)[C@H](CSSC[C@H](NC(=O)[C@@H](N)CC(=O)O)C(=O)N[C@@H](CC(C)C)C(=O)NCC(=O)N[C@@H](Cc4ccccc4)C(=O)N[C@@H](CCSC)C(=O)N[C@@H](CCCNC(=N)N)C(=O)N[C@@H](CCCCN)C(=O)N2)NC(=O)[C@H](CSSC[C@@H](C(=O)N[C@@H](Cc2ccccn2)C(=O)N[C@@H](Cc2ccc(O)cc2)C(=O)N[C@H](C(=O)N[C@@H](Cc2ccccc2)C(N)=O)C(C)C)NC(=O)[C@H](Cc2c[nH]c4ccccc24)NC(=O)[C@H](CCCCN)NC(=O)[C@H](Cc2c[nH]cn2)NC(=O)[C@H]([C@@H](C)O)NC(=O)[C@H](CCCNC(=N)N)NC(=O)[C@H](CO)NC3=O)NC(=O)[C@H](CCCCN)NC(=O)[C@H](CC(=O)O)NC(=O)[C@H](CC(N)=O)NC(=O)[C@H](CC(=O)O)NC(=O)[C@@H]2CCCN2C1=O` [compound 364] (H-DCLGFMRKCIPDNDKCCRPNLVCSRTHKWC[2Pal]YVF-NH2; disulfide 2-17, 9-23, 16-30), the values for the IC50 in experiment [1] (Table 25), in experiment [2] (Table 25) and in experiment [3] (Table 25) were 16.9 µM, 9.49 µM and 11 µM, respectively.
`CC[C@H](C)[C@@H]1NC(=O)[C@@H]2CSSC[C@@H]3NC(=O)[C@H](C(C)C)NC(=O)[C@H](CC(C)C)NC(=O)[C@H](CC(N)=O)NC(=O)[C@@H]4CCCN4C(=O)[C@H](CCCNC(=N)N)NC(=O)[C@H](CSSC[C@H](NC(=O)[C@@H](N)CC(=O)O)C(=O)N[C@@H](CC(C)C)C(=O)NCC(=O)N[C@@H](Cc4ccccc4)C(=O)N[C@@H](CCSC)C(=O)N[C@@H](CCCNC(=N)N)C(=O)N[C@@H](CCCCN)C(=O)N2)NC(=O)[C@H](CSSC[C@@H](C(=O)N[C@@H](CCCNC(=NC)NC)C(=O)N[C@@H](Cc2ccc(O)cc2)C(=O)N[C@H](C(=O)N[C@@H](Cc2ccccc2)C(N)=O)C(C)C)NC(=O)[C@H](Cc2c[nH]c4ccccc24)NC(=O)[C@H](CCCCN)NC(=O)[C@H](Cc2c[nH]cn2)NC(=O)[C@H]([C@@H](C)O)NC(=O)[C@H](CCCNC(=N)N)NC(=O)[C@H](CO)NC3=O)NC(=O)[C@H](CCCCN)NC(=O)[C@H](CC(=O)O)NC(=O)[C@H](CC(N)=O)NC(=O)[C@H](CC(=O)O)NC(=O)[C@@H]2CCCN2C1=O` [compound 365] (H-DCLGFMRKCIPDNDKCCRPNLVCSRTHKWC[Arg(Me2s)]YVF-NH2; disulfide 2-17, 9-23, 16-30): the results for the IC50 in experiment [1] (Table 25), in experiment [2] (Table 25) and in experiment [3] (Table 25) were 4.55 µM, 14.2 µM and 4.15 µM, respectively.
`CC[C@H](C)[C@@H]1NC(=O)[C@@H]2CSSC[C@@H]3NC(=O)[C@H](C(C)C)NC(=O)[C@H](CC(C)C)NC(=O)[C@H](CC(N)=O)NC(=O)[C@@H]4CCCN4C(=O)[C@H](CCCNC(=N)N)NC(=O)[C@H](CSSC[C@H](NC(=O)[C@@H](N)CC(=O)O)C(=O)N[C@@H](CC(C)C)C(=O)NCC(=O)N[C@@H](Cc4ccccc4)C(=O)N[C@@H](CCSC)C(=O)N[C@@H](CCCNC(=N)N)C(=O)N[C@@H](CCCCN)C(=O)N2)NC(=O)[C@H](CSSC[C@@H](C(=O)N[C@@H](CCCCN)C(=O)N[C@@H](CCC(N)=O)C(=O)N[C@H](C(=O)N[C@@H](Cc2ccccc2)C(N)=O)C(C)C)NC(=O)[C@H](Cc2c[nH]c4ccccc24)NC(=O)[C@H](CCCCN)NC(=O)[C@H](Cc2c[nH]cn2)NC(=O)[C@H]([C@@H](C)O)NC(=O)[C@H](CCCNC(=N)N)NC(=O)[C@H](CO)NC3=O)NC(=O)[C@H](CCCCN)NC(=O)[C@H](CC(=O)O)NC(=O)[C@H](CC(N)=O)NC(=O)[C@H](CC(=O)O)NC(=O)[C@@H]2CCCN2C1=O` [compound 366] (H-DCLGFMRKCIPDNDKCCRPNLVCSRTHKWCKQVF-NH2; disulfide 2-17, 9-23, 16-30): the IC50 in experiment [1] (Table 25) came to 2.39 µM; in experiment [2] (Table 25), 21 µM; in experiment [3] (Table 25), 4.87 µM.
